Data taken from EP2212334B1, “PROTEASOME INHIBITORS” (Millennium Pharmaceuticals, Inc., priority 2007, dated 2009).

Molecular target: T1, rat spleen 20S immunoproteasome (Rattus norvegicus, UniProt P28064+P28077)
T1 construct: rat spleen 20S immunoproteasome (Boston Biochem, 0.25 nM final); purchased Boston Biochem; host or cells: rat spleen (tissue-derived 20S immunoproteasome)
Assay: Rat 20S (PA28 activation) β1i and β5i Proteasome Assays (result stated for one or both)
Type: biochemical
Conditions: human PA28 activator, Ac-PAL-AMC (β1i) or Ac-ANW-AMC (β5i) substrate, not stated which of the two assays
Procedure: Rat 20S (PA28 activation) β1i Proteasome Assay
(§1) To 1 µL of test compound dissolved in DMSO in a 384-well black microtiter plate is added 25 µL of assay buffer at 37 °C containing human PA28 activator (Boston Biochem, 12 nM final) with Ac-PAL-AMC (•1i selective substrate) (40 µM final), followed by 25 µL of assay buffer at 37 °C containing rat spleen 20S immunoproteasome (Boston Biochem, 0.25 nM final). Assay buffer is composed of 20 mM HEPES, 0.5 mM EDTA and 0.01% BSA, pH7.4. The reaction is followed on a BMG Galaxy plate reader (37 °C, excitation 380 nm, emission 460 nm, gain 20). Percent inhibition is calculated relative to 0% inhibition (DMSO) and 100% inhibition (10 µM bortezomib) controls.
Rat 20S (PA28 activation) β5i Proteasome Assay
as §1, with “Ac-ANW-AMC •5i” for “Ac-PAL-AMC (•1i”, “substrate (30” for “substrate) (40”, “final)” for “final),”, “(37°C,” for “(37 °C,”

IC50 [nM]	Compound
≤ 1000	CC(C)C[C@H](NC(=O)C(C)(C)NC(=O)c1ccc(Cl)cc1)B(O)O [Compound 25, [(1R)-1-({2-[(4-chlorobenzoyl)amino]-2-methylpropanoyl]amino)-3-methylbutyl]boronic acid]
≤ 1000	CC(C)C[C@H](NC(=O)C1(NC(=O)Cc2ccccc2)CC1)B(O)O [Compound 22, {(1R)-3-methyl-1-[({1-[(phenylacetyl)amino]cyclopropyl}carbonyl)amino]-butyl}boronic acid]
≤ 1000	CC(C)C[C@H](NC(=O)[C@]1(NC(=O)c2cnccn2)C[C@H]1c1ccccc1)B(O)O [Compound 3, {(1R)-3-methyl-1-[(((1S,2S)-2-phenyl-1-[(pyrazin-2-ylcarbonyl)amino]-cyclopropyl}carbonyl)amino]butyl)boronic acid]
≤ 1000	CC(C)C[C@H](NC(=O)C(C)(C)NC(=O)c1cnc2ccccc2n1)B(O)O [Compound 21, [(1R)-3-methyl-1-({2-methyl-2-[(quinoxalin-2-ylcarbonyl)amino]propanoyl}-amino)butyl]boronic acid]
≤ 10000	Cc1cccc(C[C@H](NC(=O)C2(NC(=O)c3ccc(Cl)cc3)CC2)B(O)O)c1 [Compound 2, [(1R)-1-[((1-[(4-chlorobenzoyl)amino]cyclopropyl)carbonyl)amino]-2-(3-methylphenyl)ethyl]boronic acid]
≤ 10000	Cc1ccc(C[C@H](NC(=O)C2(NC(=O)c3cnccn3)CC2)B(O)O)cc1 [Compound 19, {(1R)-2-(4-methylphenyl)-1-[({1-[(pyrazin-2-ylcarbonyl)amino]cyclopropyl}-carbonyl)amino]ethyl}boronic acid]
≤ 1000	CC(C)C[C@H](NC(=O)C(C)(C)NC(=O)OCc1ccccc1)B(O)O [Compound 32, ((1R)-1-[(2-([(benzyloxy)carbonyl]amino)-2-methylpropanoyl)amino]-3-methylbutyl)boronic acid]
≤ 1000	CC(C)C[C@H](NC(=O)C1(NC(=O)c2ccccc2C(F)(F)F)CC1)B(O)O [Compound 30, ((1R)-3-methyl-1-{[(1-{[2-(trifluoromethyl)benzoyl]amino}cyclopropyl)-carbonyl]amino)butyl)boronic acid]
≤ 1000	CC(C)C[C@H](NC(=O)C(C)(C)NC(=O)c1cnccn1)B(O)O [Compound 28, [(1R)-3-methyl-1-({2-methyl-2-[(pyrazin-2-ylcarbonyl)amino]propanoyl}-amino)butyl]boronic acid]
≤ 1000	CC(C)C[C@H](NC(=O)C1(NC(=O)OCc2ccccc2)CCC1)B(O)O [Compound 18, ((1R)-1-{[(1-{[(benzyloxy)carbonyl]amino}cyclobutyl)carbonyl]amino}-3-methylbutyl)boronic acid]
